Source: ChEMBL document CHEMBL4406865, “Design, synthesis and biological evaluation of novel semicarbazone-selenochroman-4-ones hybrids as potent antifungal agents” (2019)
≈ marks a conversion by molar mass, not a printed value.

How the values were obtained:
Type in all cases: functional
Aspergillus fumigatus = experiment: Antifungal activity against Aspergillus fumigatus CGMCC 3.7795 measured at 72 hrs by CLSI protocol based microbroth dilution method; conditions: CGMCC 3.7795, 72 h
[Candida] zeylanoides = Antifungal activity against Candida zeylanoides CGMCC2.3739 measured at 24 hrs by CLSI protocol based microbroth dilution method; conditions: Dujonia zeylanoides, CGMCC2.3739, 24 h
Cryptococcus neoformans = experiment: Antifungal activity against Cryptococcus neoformans CGMCC2.3161 measured at 72 hrs by CLSI protocol based microbroth dilution method; conditions: CGMCC2.3161, 72 h
Candida albicans [1] = experiment: Antifungal activity against Candida albicans CPCC400616 measured at 24 hrs by CLSI protocol based microbroth dilution method; conditions: CPCC400616, 24 h
Candida albicans [2] = experiment: Antifungal activity against Candida albicans SC5314 incubated for 24 hrs by CLSI protocol based microbroth dilution method; conditions: SC5314, 24 h
Candida albicans [3] = experiment: Antifungal activity against fluconazole-resistant Candida albicans isolate 103 incubated for 24 hrs by CLSI protocol based microbroth dilution method; conditions: isolate 103, 24 h
Candida albicans [4] = experiment: Antifungal activity against fluconazole-resistant Candida albicans isolate 17 incubated for 24 hrs by CLSI protocol based microbroth dilution method; conditions: isolate 17, 24 h
Candida albicans [5] = experiment: Antifungal activity against fluconazole-resistant Candida albicans CaR incubated for 24 hrs by CLSI protocol based microbroth dilution method
Candida albicans [6] = experiment: Antifungal activity against fluconazole-resistant Candida albicans isolate 100 incubated for 24 hrs by CLSI protocol based microbroth dilution method; conditions: isolate 100, 24 h

| SMILES | MIC90 (Aspergillus fumigatus) [µg/mL] | MIC90 ([Candida] zeylanoides) [µg/mL] | MIC90 (Cryptococcus neoformans) [µg/mL] | MIC90 (Candida albicans [1]) [µg/mL] | MIC90 (Candida albicans [2]) [µg/mL] | MIC90 (Candida albicans [3]) [µg/mL] | MIC90 (Candida albicans [4]) [µg/mL] | MIC90 (Candida albicans [5]) [µg/mL] | MIC90 (Candida albicans [6]) [µg/mL] |
| --- | --- | --- | --- | --- | --- | --- | --- | --- | --- |
| NNC(=S)NN | > 128 | 64 (≈ 603 µM) | 64 (≈ 603 µM) | 32 (≈ 301 µM) | 64 (≈ 603 µM) |  |  |  |  |
| Cc1ccc2c(c1)/C(=N/NC(=S)Nc1ccccc1)CC[Se]2 | > 128 | > 128 | 16 (≈ 42.7 µM) | 64 (≈ 171 µM) | 64 (≈ 171 µM) |  |  |  |  |
| Cc1ccc2c(c1)/C(=N/NC(=S)NN)CC[Se]2 | > 128 | > 128 | 4 (≈ 12.8 µM) | 8 (≈ 25.5 µM) | 8 (≈ 25.5 µM) |  |  |  |  |
| CCc1ccccc1NC(=O)N/N=C1\CC[Se]c2ccc(C)cc21 | > 128 | 16 (≈ 41.4 µM) | 4 (≈ 10.4 µM) | 64 (≈ 166 µM) | 64 (≈ 166 µM) |  |  |  |  |
| COc1cccc(NC(=S)N/N=C2\CC[Se]c3ccc(C)cc32)c1 | > 128 | > 128 | 32 (≈ 79.1 µM) | 64 (≈ 158 µM) | 64 (≈ 158 µM) |  |  |  |  |
| Cc1ccc2c(c1)/C(=N/NC(=O)Nc1cccc(Br)c1)CC[Se]2 | > 128 | > 128 | > 128 | > 128 | > 128 |  |  |  |  |
| O=C1CC[Se]c2ccc(F)cc21 | > 128 | > 128 | > 128 | 16 (≈ 69.8 µM) | 4 (≈ 17.5 µM) |  |  |  |  |
| COc1ccc(OC)c(NC(=S)N/N=C2\CC[Se]c3ccc(F)cc32)c1 | 64 (≈ 146 µM) | 4 (≈ 9.12 µM) | 4 (≈ 9.12 µM) | 8 (≈ 18.2 µM) | 2 (≈ 4.56 µM) | 4 (≈ 9.12 µM) | 2 (≈ 4.56 µM) | 4 (≈ 9.12 µM) | 2 (≈ 4.56 µM) |
| COc1ccc(OC)c(NC(=S)N/N=C2\CC[Se]c3ccccc32)c1 | > 128 | 32 (≈ 76.1 µM) | 2 (≈ 4.76 µM) | 8 (≈ 19 µM) | 4 (≈ 9.51 µM) |  |  |  |  |
| Cc1ccc(NC(=S)N/N=C2\CC[Se]c3ccc(F)cc32)cc1 | > 128 | 16 (≈ 40.8 µM) | 2 (≈ 5.1 µM) | 8 (≈ 20.4 µM) | 32 (≈ 81.6 µM) |  |  |  |  |
| CCc1ccccc1NC(=O)NN | > 128 | 64 (≈ 357 µM) | 32 (≈ 179 µM) | 64 (≈ 357 µM) | 32 (≈ 179 µM) |  |  |  |  |
| Cc1ccc(C)c(NC(=O)N/N=C2\CC[Se]c3ccc(F)cc32)c1 | > 128 | > 128 | > 128 | 8 (≈ 20.5 µM) | 4 (≈ 10.2 µM) |  |  |  |  |
| Cc1ccc(C)c(NC(=O)N/N=C2\CC[Se]c3ccc(C)cc32)c1 | > 128 | > 128 | 64 (≈ 166 µM) | 64 (≈ 166 µM) | 64 (≈ 166 µM) |  |  |  |  |
| O=C(N/N=C1\CC[Se]c2ccc(F)cc21)Nc1cc(Cl)cc(Cl)c1 | > 128 | > 128 | > 128 | > 128 | > 128 |  |  |  |  |
| O=C1CC[Se]c2ccccc21 | > 128 | > 128 | 8 (≈ 37.9 µM) | 64 (≈ 303 µM) | 4 (≈ 18.9 µM) |  |  |  |  |
| CCOc1ccc(NC(=O)N/N=C2\CC[Se]c3ccc(C)cc32)cc1 | > 128 | > 128 | 32 (≈ 79.5 µM) | 64 (≈ 159 µM) | 8 (≈ 19.9 µM) |  |  |  |  |
| Cc1ccc(C)c(NC(=S)N/N=C2\CC[Se]c3ccc(F)cc32)c1 | > 128 | > 128 | 16 (≈ 39.4 µM) | 8 (≈ 19.7 µM) | 32 (≈ 78.7 µM) |  |  |  |  |
| O=C(N/N=C1\CC[Se]c2ccc(F)cc21)Nc1ccccc1Cl | > 128 | 8 (≈ 20.2 µM) | 16 (≈ 40.3 µM) | 8 (≈ 20.2 µM) | 2 (≈ 5.04 µM) |  |  |  |  |
| NNC(=S)Nc1ccccc1 | > 128 | > 128 | 64 (≈ 383 µM) | 64 (≈ 383 µM) | > 128 |  |  |  |  |
| NNC(=S)N/N=C1\CC[Se]c2ccc(F)cc21 | > 128 | 64 (≈ 202 µM) | 4 (≈ 12.6 µM) | 2 (≈ 6.3 µM) | 4 (≈ 12.6 µM) | 2 (≈ 6.3 µM) | 8 (≈ 25.2 µM) | 8 (≈ 25.2 µM) | 4 (≈ 12.6 µM) |

| SMILES | MIC90 (Aspergillus fumigatus) [µg/mL] | MIC90 ([Candida] zeylanoides) [µg/mL] | MIC90 (Cryptococcus neoformans) [µg/mL] | MIC90 (Candida albicans [1]) [µg/mL] | MIC90 (Candida albicans [2]) [µg/mL] | MIC90 (Candida albicans [3]) [µg/mL] | MIC90 (Candida albicans [4]) [µg/mL] | MIC90 (Candida albicans [5]) [µg/mL] | MIC90 (Candida albicans [6]) [µg/mL] |
| --- | --- | --- | --- | --- | --- | --- | --- | --- | --- |
| Cc1ccc2c(c1)C(=O)CC[Se]2 | > 128 | > 128 | > 128 | 32 (≈ 142 µM) | 4 (≈ 17.8 µM) |  |  |  |  |
| CCc1ccccc1NC(=O)N/N=C1\CC[Se]c2ccc(F)cc21 | > 128 | > 128 | > 128 | 8 (≈ 20.5 µM) | 8 (≈ 20.5 µM) |  |  |  |  |
| Fc1ccc2c(c1)/C(=N/NC(=S)Nc1ccccc1)CC[Se]2 | > 128 | 8 (≈ 21.1 µM) | 2 (≈ 5.29 µM) | 0.25 (≈ 0.661 µM) | 2 (≈ 5.29 µM) | 0.5 (≈ 1.32 µM) | 2 (≈ 5.29 µM) | 2 (≈ 5.29 µM) | 0.5 (≈ 1.32 µM) |
| S=C(N/N=C1\CC[Se]c2ccccc21)Nc1ccccc1 | > 128 | 1 (≈ 2.78 µM) | 8 (≈ 22.2 µM) | 0.5 (≈ 1.39 µM) | 4 (≈ 11.1 µM) | > 128 | 4 (≈ 11.1 µM) | 64 (≈ 178 µM) | 32 (≈ 88.8 µM) |
| Cc1ccc(C)c(NC(=S)N/N=C2\CC[Se]c3ccccc32)c1 | > 128 | 128 (≈ 330 µM) | 16 (≈ 41.2 µM) | 16 (≈ 41.2 µM) | 8 (≈ 20.6 µM) |  |  |  |  |
| Cc1ccc2c(c1)/C(=N/NC(=O)Nc1ccccc1)CC[Se]2 | > 128 | 16 (≈ 44.7 µM) | 8 (≈ 22.3 µM) | 64 (≈ 179 µM) | 4 (≈ 11.2 µM) |  |  |  |  |
| Cc1ccc(NC(=S)N/N=C2\CC[Se]c3ccccc32)cc1 | > 128 | 128 (≈ 342 µM) | 8 (≈ 21.4 µM) | 8 (≈ 21.4 µM) | 64 (≈ 171 µM) |  |  |  |  |
| CCc1ccccc1NC(=O)N/N=C1\CC[Se]c2ccccc21 | > 128 | > 128 | > 128 | > 128 | > 128 |  |  |  |  |
| O=C(N/N=C1\CC[Se]c2ccc(F)cc21)Nc1cccc(Br)c1 | > 128 | > 128 | 16 (≈ 36.3 µM) | 16 (≈ 36.3 µM) | 64 (≈ 145 µM) |  |  |  |  |
| Cc1ccc2c(c1)/C(=N/NC(=O)Nc1ccccc1Cl)CC[Se]2 | > 128 | > 128 | 64 (≈ 163 µM) | 64 (≈ 163 µM) | 32 (≈ 81.5 µM) |  |  |  |  |
| Cc1ccc(NC(=S)N/N=C2\CC[Se]c3ccc(C)cc32)cc1 | > 128 | 8 (≈ 20.6 µM) | 32 (≈ 82.4 µM) | 64 (≈ 165 µM) | 16 (≈ 41.2 µM) |  |  |  |  |
| NNC(=S)N/N=C1\CC[Se]c2ccccc21 | > 128 | 1 (≈ 3.34 µM) | 0.5 (≈ 1.67 µM) | 8 (≈ 26.7 µM) | 16 (≈ 53.5 µM) | > 128 | 64 (≈ 214 µM) | > 128 | > 128 |
| Cc1ccc(C)c(NC(=S)N/N=C2\CC[Se]c3ccc(C)cc32)c1 | > 128 | 128 (≈ 318 µM) | 16 (≈ 39.8 µM) | 2 (≈ 4.97 µM) | 2 (≈ 4.97 µM) |  |  |  |  |
| CCOc1ccc(NC(=O)N/N=C2\CC[Se]c3ccc(F)cc32)cc1 | > 128 | 16 (≈ 39.4 µM) | 32 (≈ 78.8 µM) | 8 (≈ 19.7 µM) | 4 (≈ 9.84 µM) |  |  |  |  |
| COc1ccc(OC)c(NC(=S)N/N=C2\CC[Se]c3ccc(C)cc32)c1 | > 128 | 128 (≈ 295 µM) | 32 (≈ 73.7 µM) | 64 (≈ 147 µM) | 32 (≈ 73.7 µM) |  |  |  |  |
| Cc1ccc2c(c1)/C(=N/NC(=O)Nc1cc(Cl)cc(Cl)c1)CC[Se]2 | > 128 | > 128 | > 128 | > 128 | > 128 |  |  |  |  |
| COc1cccc(NC(=S)N/N=C2\CC[Se]c3ccccc32)c1 | > 128 | 2 (≈ 5.12 µM) | 4 (≈ 10.2 µM) | 16 (≈ 41 µM) | 16 (≈ 41 µM) |  |  |  |  |
| COc1cccc(NC(=S)N/N=C2\CC[Se]c3ccc(F)cc32)c1 | > 128 | 2 (≈ 4.9 µM) | 1 (≈ 2.45 µM) | 8 (≈ 19.6 µM) | 16 (≈ 39.2 µM) |  |  |  |  |
| OC(Cn1cncn1)(Cn1cncn1)c1ccc(F)cc1F [FLUCONAZOLE] | > 128 | 2 (≈ 6.53 µM) | 1 (≈ 3.27 µM) | 2 (≈ 6.53 µM) | 1 (≈ 3.27 µM) | > 128 | 128 (≈ 418 µM) | > 128 | 128 (≈ 418 µM) |
